According to ChEMBL document CHEMBL1201862, “PubChem BioAssay data set” (2004):
Calls of active or inactive are those of the source.

Assays:
[1] = blockers of CRF-binding protein–CRF-R2 complex – cell-based, uHTS hits, 384-well, dose response (AID 651639); assay type: functional, Homo sapiens; settings: read-out: IC50_Mean
[2] = target: T1, Corticotropin-releasing factor receptor 2/Corticotropin-releasing factor-binding protein (Homo sapiens, UniProt P24387+Q13324); assay: activators of CRF receptor 2 with binding protein – uHTS hits, confirmation (AID 602473); assay type: functional; settings: read-out: EC50_Mean
T1 sequence (Q13324 whole entry): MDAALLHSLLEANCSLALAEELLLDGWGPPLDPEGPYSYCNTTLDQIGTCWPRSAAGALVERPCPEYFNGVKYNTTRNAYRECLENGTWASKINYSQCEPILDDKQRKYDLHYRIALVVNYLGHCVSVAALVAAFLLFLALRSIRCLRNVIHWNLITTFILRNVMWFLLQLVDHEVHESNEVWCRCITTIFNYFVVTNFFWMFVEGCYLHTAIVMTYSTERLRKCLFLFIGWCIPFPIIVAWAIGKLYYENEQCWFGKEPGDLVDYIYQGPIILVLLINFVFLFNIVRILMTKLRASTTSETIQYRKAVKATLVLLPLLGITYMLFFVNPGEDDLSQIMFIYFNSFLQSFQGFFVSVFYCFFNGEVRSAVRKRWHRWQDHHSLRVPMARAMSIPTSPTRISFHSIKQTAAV
T1 sequence (P24387 whole entry): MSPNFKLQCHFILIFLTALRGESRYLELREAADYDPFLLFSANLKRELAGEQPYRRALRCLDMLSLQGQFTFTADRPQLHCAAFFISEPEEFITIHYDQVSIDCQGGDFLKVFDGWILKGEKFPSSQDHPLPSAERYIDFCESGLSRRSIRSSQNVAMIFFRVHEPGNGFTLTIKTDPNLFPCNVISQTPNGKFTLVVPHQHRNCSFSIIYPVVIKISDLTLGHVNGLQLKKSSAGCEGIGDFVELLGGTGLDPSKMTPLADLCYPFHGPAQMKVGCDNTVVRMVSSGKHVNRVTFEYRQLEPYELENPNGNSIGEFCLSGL

[3] = target: T1, Corticotropin-releasing factor receptor 2/Corticotropin-releasing factor-binding protein; assay: Dose Response confirmation of uHTS hits for small molecule antagonists of the CRF-binding protein and CRF-R2 receptor complex.; assay type: functional; settings: read-out: IC50_Mean
[4] = nonselective StAR promoter luciferase inhibitors – cell-based, luminescence, luciferase reporter, counter-screen for LRH-1 inverse agonist project, dose response (AID 651969); assay type: functional
[5] = THP-1 cell cytotoxicity, dose response, cytotoxicity control for non-replicating M. tuberculosis project (AID 489025); assay type: functional
[6] = Vero E6 cell cytotoxicity, dose response, cytotoxicity control for non-replicating M. tuberculosis project, secondary assay (AID 492998); assay type: functional, VeroE6; settings: Vero C1008
[7] = target: Nuclear receptor subfamily 5 group A member 2 (Homo sapiens, UniProt O00482); assay type: functional, cell-based;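 further: HEK293T cells transfected with LRH-1 and a StAR promoter luciferase reporter; potency for inhibitors that lower LRH-1 driven reporter light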
[8] = cells; assay type: functional
[9] = target: Steroidogenic factor 1 (Homo sapiens, UniProt Q13285); assay: Counterscreen for inverse agonists of the liver receptor homolog-1 (LRH-1; NR5A2): Luminescence-based cell-based high throughput dose response assay to identify inverse agonists of the Steroidogenic Factor 1 Nuclear Receptor (SF1; NR5A1).; assay type: functional
[10] = NIH-3T3 fibroblast cytotoxicity, dose response, cytotoxicity control, cell-based, fluorescence, Alamar Blue, secondary assay (AID 2327); assay type: functional;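 further: NIH-3T3 mouse fibroblasts cultured with fluconazole at 8 µg/mL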
[11] = fluconazole-exposed Candida albicans growth modulators – fluorescence, retest, confirmation (AID 2467); assay type: functional, cell-based
[12] = target: Troponin, cardiac muscle (Homo sapiens, UniProt P19429+P45379+P63316); assay: Fluorescence-based biochemical high throughput dose response assay for activators of the calcium sensitivity of cardiac Regulated Thin Filaments (RTF). [Related pubchem assays (depositor defined):AID493008, AID493018, AID504382, AID504383]; assay type: protein-complex assay
[13] = target: T2, Short transient receptor potential channel 4 (Mus musculus, UniProt Q9QUQ5); assay: block of DAMGO-driven TRPC4 calcium entry – cell-based, HEK293 TRPC4/mu-opioid, Fluo-4 calcium, dose response (AID 434942); assay type: functional;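 further: potency of inhibitors blocking the TRPC4 calcium response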
T2 sequence (Q9QUQ5 whole entry): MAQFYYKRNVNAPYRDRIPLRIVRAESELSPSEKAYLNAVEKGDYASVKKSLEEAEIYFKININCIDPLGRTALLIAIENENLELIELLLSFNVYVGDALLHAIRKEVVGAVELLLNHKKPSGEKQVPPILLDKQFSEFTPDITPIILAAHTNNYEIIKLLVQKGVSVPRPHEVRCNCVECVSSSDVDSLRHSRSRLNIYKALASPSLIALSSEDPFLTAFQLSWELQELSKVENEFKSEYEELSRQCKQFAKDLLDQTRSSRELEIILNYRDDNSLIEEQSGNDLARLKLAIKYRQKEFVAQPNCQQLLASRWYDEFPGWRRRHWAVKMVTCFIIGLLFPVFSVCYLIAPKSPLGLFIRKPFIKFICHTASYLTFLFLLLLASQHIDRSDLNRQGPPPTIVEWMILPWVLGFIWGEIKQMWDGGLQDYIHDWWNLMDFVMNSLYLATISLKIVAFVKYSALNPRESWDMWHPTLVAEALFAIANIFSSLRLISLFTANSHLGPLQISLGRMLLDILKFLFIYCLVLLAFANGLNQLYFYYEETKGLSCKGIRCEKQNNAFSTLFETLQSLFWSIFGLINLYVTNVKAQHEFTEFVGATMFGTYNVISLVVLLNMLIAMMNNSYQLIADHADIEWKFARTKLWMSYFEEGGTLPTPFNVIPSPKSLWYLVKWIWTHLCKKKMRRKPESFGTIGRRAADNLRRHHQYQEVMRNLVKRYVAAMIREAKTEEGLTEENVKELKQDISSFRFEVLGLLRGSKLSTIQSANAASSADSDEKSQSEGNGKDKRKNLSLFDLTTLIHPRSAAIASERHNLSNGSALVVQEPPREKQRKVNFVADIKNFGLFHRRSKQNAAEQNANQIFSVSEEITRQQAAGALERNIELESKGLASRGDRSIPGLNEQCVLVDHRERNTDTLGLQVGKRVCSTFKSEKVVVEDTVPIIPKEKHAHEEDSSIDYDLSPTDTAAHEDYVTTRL

[14] = target: T3, Protein RecA (Mycobacterium tuberculosis, UniProt P9WHJ3); assay: Fluorescence Cell-Free Homogeneous Dose Retest to Identify Inhibitors of RecA-Intein Splicing Activity. [Related pubchem assays (depositor defined):AID2097, AID2223, AID489010, AID492950]; assay type: functional
T3 sequence (P9WHJ3 whole entry): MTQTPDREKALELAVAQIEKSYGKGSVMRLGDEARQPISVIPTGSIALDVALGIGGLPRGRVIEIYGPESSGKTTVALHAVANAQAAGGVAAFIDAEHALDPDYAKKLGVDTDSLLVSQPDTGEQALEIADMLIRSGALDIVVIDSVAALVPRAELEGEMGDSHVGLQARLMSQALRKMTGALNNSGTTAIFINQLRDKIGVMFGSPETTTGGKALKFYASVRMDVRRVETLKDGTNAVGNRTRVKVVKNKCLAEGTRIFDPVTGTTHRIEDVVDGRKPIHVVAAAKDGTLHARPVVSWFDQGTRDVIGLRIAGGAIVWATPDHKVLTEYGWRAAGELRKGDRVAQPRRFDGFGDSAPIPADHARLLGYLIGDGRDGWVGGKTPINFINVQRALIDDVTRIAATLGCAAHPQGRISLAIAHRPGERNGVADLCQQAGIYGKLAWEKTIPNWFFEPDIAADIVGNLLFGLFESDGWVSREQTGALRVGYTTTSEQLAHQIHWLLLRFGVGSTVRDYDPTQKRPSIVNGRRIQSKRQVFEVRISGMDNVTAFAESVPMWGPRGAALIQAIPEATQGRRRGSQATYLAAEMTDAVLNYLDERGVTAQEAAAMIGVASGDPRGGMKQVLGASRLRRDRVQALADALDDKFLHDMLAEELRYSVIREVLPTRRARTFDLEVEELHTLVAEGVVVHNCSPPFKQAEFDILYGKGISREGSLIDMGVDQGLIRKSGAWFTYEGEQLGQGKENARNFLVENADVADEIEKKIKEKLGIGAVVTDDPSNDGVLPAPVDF

[15] = target: T4, Replicative DNA helicase DnaB (Mycobacterium tuberculosis, UniProt P9WMR3); assay: DnaB intein splicing inhibitors, dose response, biochemical, cell-free fluorescence (AID 449749); assay type: functional
T4 sequence (P9WMR3 whole entry): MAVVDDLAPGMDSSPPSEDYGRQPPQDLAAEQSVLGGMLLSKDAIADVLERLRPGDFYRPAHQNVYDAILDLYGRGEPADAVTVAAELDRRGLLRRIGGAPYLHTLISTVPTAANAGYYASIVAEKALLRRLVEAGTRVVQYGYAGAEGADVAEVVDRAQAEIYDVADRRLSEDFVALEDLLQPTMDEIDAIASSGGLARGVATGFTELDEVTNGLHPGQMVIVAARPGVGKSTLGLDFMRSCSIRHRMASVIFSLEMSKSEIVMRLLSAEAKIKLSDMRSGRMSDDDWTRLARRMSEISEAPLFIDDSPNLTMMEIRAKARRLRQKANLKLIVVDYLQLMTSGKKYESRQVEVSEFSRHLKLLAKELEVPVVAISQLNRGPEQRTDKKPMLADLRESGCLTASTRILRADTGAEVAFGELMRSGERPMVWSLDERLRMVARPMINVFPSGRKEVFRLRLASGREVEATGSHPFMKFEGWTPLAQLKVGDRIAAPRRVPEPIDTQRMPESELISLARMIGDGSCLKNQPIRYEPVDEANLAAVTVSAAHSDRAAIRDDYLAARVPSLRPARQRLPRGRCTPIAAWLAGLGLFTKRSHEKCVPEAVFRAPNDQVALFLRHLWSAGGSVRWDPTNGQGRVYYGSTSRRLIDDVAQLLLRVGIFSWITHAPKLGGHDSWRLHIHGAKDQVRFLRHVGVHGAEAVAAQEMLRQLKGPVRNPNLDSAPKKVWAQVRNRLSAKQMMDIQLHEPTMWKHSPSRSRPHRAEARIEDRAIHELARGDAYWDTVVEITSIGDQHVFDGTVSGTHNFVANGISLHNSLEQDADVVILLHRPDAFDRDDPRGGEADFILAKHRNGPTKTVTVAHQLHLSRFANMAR

[16] = target: T5, Rac GTPase-activating protein 1 (Homo sapiens, UniProt Q9H0H5); assay: blockers of MgcRacGAP-driven Rac1 GTP hydrolysis – biochemical, ADP Hunter fluorescence, primary and confirmatory, confirmation (AID 624330); assay type: functional
T5 sequence (Q9H0H5 whole entry): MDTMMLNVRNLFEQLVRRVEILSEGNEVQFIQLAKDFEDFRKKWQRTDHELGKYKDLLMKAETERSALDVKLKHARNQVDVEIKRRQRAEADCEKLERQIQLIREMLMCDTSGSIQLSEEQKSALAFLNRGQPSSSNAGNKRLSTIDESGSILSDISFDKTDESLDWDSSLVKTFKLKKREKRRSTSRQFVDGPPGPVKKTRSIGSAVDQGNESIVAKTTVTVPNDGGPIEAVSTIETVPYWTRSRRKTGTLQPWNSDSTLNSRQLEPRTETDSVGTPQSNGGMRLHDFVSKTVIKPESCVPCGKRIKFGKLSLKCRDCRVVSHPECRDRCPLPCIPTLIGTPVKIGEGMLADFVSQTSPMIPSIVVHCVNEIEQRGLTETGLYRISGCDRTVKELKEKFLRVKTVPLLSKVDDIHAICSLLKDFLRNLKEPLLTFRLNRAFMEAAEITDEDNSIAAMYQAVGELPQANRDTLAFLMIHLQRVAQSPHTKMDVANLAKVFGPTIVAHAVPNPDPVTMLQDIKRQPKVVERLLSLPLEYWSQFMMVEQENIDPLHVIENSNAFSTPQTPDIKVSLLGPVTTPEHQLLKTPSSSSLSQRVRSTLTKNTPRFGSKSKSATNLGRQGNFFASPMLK

[17] = viability loss in HeLa cells – cytotoxicity control for MgcRacGAP inhibitor project, dose response (AID 624300); assay type: functional

Row | SMILES | IC50 [1] | EC50 [2] | IC50 [3] | IC50 [4] | IC50 [7] | IC50 [9] | further results
1 | COc1ccc(-c2cc3nc(C4CCN(C(=O)OC(C)(C)C)CC4)c(C(=O)O)cn3n2)cc1 | 7.23 µM (active) | > 53 µM (inactive) | 13.1 µM (active) |  |  |  | 
2 | Cc1onc(-c2ccccc2Cl)c1C(=O)ON=C(N)c1ccc([N+](=O)[O-])o1 |  |  |  | 35.9 µM (inactive) | 0.495 µM (active) | 0.309 µM (active) | CC50 [5]: 17.9 µM (active); CC50 [6]: 14.9 µM (active); IC50 [8]: 2.13 µM (active)
3 | Oc1nc(Nc2ccc3c(c2)OCCO3)nnc1Cc1ccccc1 |  |  |  | 35.9 µM (inactive) | 35.9 µM (inactive) | 1.87 µM (active) | EC50 [10]: > 160 µM (inconclusive); EC50 [11]: > 38 µM (not active)
4 | O=C(O)c1ccc(NC(=S)NC(=O)c2ccc(-c3ccccc3)cc2)cc1 | 5.93 µM (active) | > 53 µM (inactive) | 6.04 µM (active) |  |  |  | EC50 [12]: > 71.5 µM (inactive); EC50 [10]: > 150 µM (inactive); EC50 [11]: 1.28 µM (active); EC50 [13]: 4.73 µM (active)
5 | COc1ccc(N2C(=O)CSC23C(=O)N2c4c(cccc43)C(C)=CC2(C)C)cc1 (stereo unspecified) | 4.46 µM (active) | > 53 µM (inactive) | 11 µM (active) |  |  |  | EC50 [14]: 35.6 µM (active); AC50 [15]: 10.3 µM (active)
6 | CC(O)(c1ccc(F)c(F)c1)c1nc(-c2ccc(S(C)(=O)=O)cc2)cs1 (stereo unspecified) |  |  |  | 35.8 µM (inactive) | 11.3 µM (inactive) | 1.91 µM (active) | 
7 | COc1cc(/C=N/NC(=S)NC2CC3CCC2C3)ccc1O (stereo unspecified) |  |  |  |  |  |  | IC50 [16]: 48.8 µM (active); CC50 [17]: 100 µM (active)
